Values after ≈ are worked out from the molar mass of the structure shown. Like-named read-outs stand apart in the source and are kept apart here.
Legend:
PMMoV CP and I3QHX5 = assay: BiFC interaction of PMMoV CP and PMMoV CP^Y13A with I3QHX5 before and after application of C1; type: cell-based, N. benthamiana; settings: addition of C1, 30, 36 and 42 hpi, Fig. 6A
Description: Designed primers to construct vectors of LCA and BiFC via homologous recombination. Extracted plasmids and waited for sequencing confirmation before transforming them into GV3101 (pU19). A. tumefaciens transient transformation solution (200 μM acetosyringone, 10 mM MgCl2, and 10 mM MES, pH = 5.6) was prepared to resuspend the organisms with a final OD600 of 1.0, then mixed them with equal OD600 and volume before being infiltrated into N. benthamiana of the same growth stage. […]

PMMoV CP [1] = target: T1, PMMoV CP (Pepper mild mottle virus, UniProt P69509); assay: ABPP probe capture of PMMoV CP (Western blot), concentration dependence and competitive inhibition; type: binding; settings: for capture of the 17 kDa protein from PMMoV: Western blot, identical concentration, Fig. S132; for capture of PMMoV CP: same concentration of 100 µM; for capture of PMMoV CP / labeling of PMMoV CP by probe: Fig. 1B
Excerpt: ABPP technology utilized its unique chemical probe strategy to selectively capture target proteins and was regarded as a well-established approach for discovering target proteins.

PMMoV [2] = assay: Antiviral activity assay against PMMoV, protective activity; type: in vivo, Pepper mild mottle virus (PMMoV); set-up: Protective activity: concentration or dose not given beside the values; settings: for EC50: Pepper mild mottle virus, read-out: EC50 of protective activity
Description: (§1) Virions were isolated and extracted from leaves of N. benthamiana infected with PMMoV referring to the method recorded in the literature. And the inhibiting activities of C1–C38 against PMMoV were assessed with reference to the literature as well [26, 34].

PMMoV [3] = assay: Antiviral activity assay against PMMoV, curative activity; type: in vivo, Pepper mild mottle virus (PMMoV); set-up: Curative activity: concentration or dose not given beside the values; settings: for EC50: Pepper mild mottle virus, read-out: EC50 of curative activity
Description: as §1

PMMoV CP [4] = target: T1, PMMoV CP; assay: Microscale thermophoresis (MST) binding affinity with PMMoV CP
Description: The binding affinities of compounds with PMMoV CP were analyzed by MST based on the procedures delineated in the literature.

PMMoV [5] = assay: Antiviral activity assay against PMMoV, inactivating activity; type: in vivo, Pepper mild mottle virus (PMMoV); settings: for pest or weed control at 500 µg/mL / EC50: Pepper mild mottle virus; for pest or weed control at 500 µg/mL: read-out: Inactivating activity; for EC50: read-out: EC50 of inactivating activity
Description: as §1

[6] = target: PMMoV CP (Octet, in vitro) (pepper mild mottle virus); assay: BLI; Octet, in vitro; which partner was immobilised is not stated
[7] = against PMMoV, average of three replicates, ± standard deviation
[8] = against PMMoV, at 500 µg/mL, average of three replicates, ± standard deviation

Compound: CC(=O)OCC1OC(n2cnc3c(N4CCOCC4)ncnc32)C(NS(=O)(=O)c2ccc([N+](=O)[O-])cc2)C(OC(C)=O)C1OC(C)=O (stereo not shown) [C1]
- effect on interaction of PMMoV CP and PMMoV CP^Y13A with I3QHX5 (PMMoV CP and I3QHX5): affected the interaction
- capture of the 17 kDa protein from PMMoV (PMMoV CP [1]): neither C1 nor DMSO exhibited such a capacity
- competitive inhibition of C2 labeling of PMMoV CP (PMMoV CP [1]; increasing concentrations of C1, Fig. 1C): competitively inhibited the interaction of C2 with PMMoV CP
- capture of PMMoV CP (PMMoV CP [1]): could not
- EC50 (PMMoV [2]; [7]): 86.9 ± 8.8 µg/mL (≈ 128 µM)
- Protective activity (PMMoV [2]; [7]): 64.3 ± 2.8%
- EC50 (PMMoV [3]; [7]): 17 ± 3.9 µg/mL (≈ 25.1 µM)
- Curative activity (PMMoV [3]; [7]): 73.7 ± 5.2%
- Kd (PMMoV CP [4]): 1.5 µM
- pest or weed control at 500 µg/mL (PMMoV [5]; [8]): 76.4%
- EC50 (PMMoV [5]; [7]): 37 ± 4.4 µg/mL (≈ 54.6 µM)
- Inactivating activity (PMMoV [5]; [8]): 76.4 ± 2.6%

Compound: C#CCN1CCN(c2ncnc3c2ncn3C2OC(COC(C)=O)C(OC(C)=O)C(OC(C)=O)C2NS(=O)(=O)c2ccc([N+](=O)[O-])cc2)CC1 (stereo not shown) [C2]
- capture of the 17 kDa protein from PMMoV (PMMoV CP [1]): capable of capturing the protein with a molecular weight of 17 kDa
- labeling of PMMoV CP by probe (PMMoV CP [1]; concentrations of 10–50 µM): successfully labeled protein
- labeling of PMMoV CP by probe (PMMoV CP [1]; concentrations reduced to 5–1 µM): failed to do so
- capture of PMMoV CP (PMMoV CP [1]): could capture PMMoV CP
- EC50 (PMMoV [2]; [7]): 64.5 ± 4.5 µg/mL (≈ 90.2 µM)
- Protective activity (PMMoV [2]; [7]): 65.9 ± 3.0%
- EC50 (PMMoV [3]; [7]): 66.6 ± 4.5 µg/mL (≈ 93.2 µM)
- Curative activity (PMMoV [3]; [7]): 67.3 ± 4.3%
- pest or weed control at 500 µg/mL (PMMoV [5]; [8]): 67.4 ± 3.9%
- EC50 (PMMoV [5]; [7]): 40.7 ± 2.3 µg/mL (≈ 56.9 µM)

Compound: CC(=O)OCC1OC(n2cnc3c(N4CCOCC4)ncnc32)C(NS(=O)(=O)c2ccc(C)cc2)C(OC(C)=O)C1OC(C)=O (stereo not shown) [C24]
- EC50 (PMMoV [2]; [7]): 919 ± 10.2 µg/mL (≈ 1420 µM)
- Protective activity (PMMoV [2]; [7]): 40.8 ± 3.5%
- EC50 (PMMoV [3]; [7]): 30.7 ± 1.2 µg/mL (≈ 47.5 µM)
- Curative activity (PMMoV [3]; [7]): 72.5 ± 2.2%
- Kd (PMMoV CP [4]): 109 µM
- pest or weed control at 500 µg/mL (PMMoV [5]; [8]): 65.1 ± 4.2%
- EC50 (PMMoV [5]; [7]): 145 ± 4.7 µg/mL (≈ 224 µM)

Compound: CC(=O)OCC1OC(n2cnc3c(N4CCOCC4)nc(Cl)nc32)C(NS(=O)(=O)c2ccc(C)cc2)C(OC(C)=O)C1OC(C)=O (stereo not shown) [C25]
- EC50 (PMMoV [2]; [7]): 345 ± 11.3 µg/mL (≈ 507 µM)
- Protective activity (PMMoV [2]; [7]): 52.3 ± 1.1%
- EC50 (PMMoV [3]; [7]): 167 ± 5.2 µg/mL (≈ 245 µM)
- Curative activity (PMMoV [3]; [7]): 59.0 ± 3.5%
- Kd (PMMoV CP [4]): 264 ± 25.1 µM
- pest or weed control at 500 µg/mL (PMMoV [5]; [8]): 46.9 ± 1.8%
- EC50 (PMMoV [5]; [7]): 573 ± 10.9 µg/mL (≈ 841 µM)

Compound: CC(=O)OCC1OC(n2cnc3c(N4CCOCC4)ncnc32)C(NS(=O)(=O)c2ccc(OC(F)(F)F)cc2)C(OC(C)=O)C1OC(C)=O (stereo not shown) [C33]
- EC50 (PMMoV [2]; [7]): 305 ± 12.2 µg/mL (≈ 426 µM)
- Protective activity (PMMoV [2]; [7]): 53.0 ± 3.7%
- EC50 (PMMoV [3]; [7]): 32 ± 1 µg/mL (≈ 44.7 µM)
- Curative activity (PMMoV [3]; [7]): 71.5 ± 4.4%
- pest or weed control at 500 µg/mL (PMMoV [5]; [8]): 54.4 ± 3.3%
- EC50 (PMMoV [5]; [7]): 176 ± 11.3 µg/mL (≈ 246 µM)

Compound: CC(=O)OCC1OC(n2cnc3c(N4CCOCC4)nc(F)nc32)C(NS(=O)(=O)c2ccc(OC(F)(F)F)cc2)C(OC(C)=O)C1OC(C)=O (stereo not shown) [C34]
- EC50 (PMMoV [2]; [7]): 53.8 ± 4.8 µg/mL (≈ 73.2 µM)
- Protective activity (PMMoV [2]; [7]): 65.6 ± 4.5%
- EC50 (PMMoV [3]; [7]): 33.8 ± 4.6 µg/mL (≈ 46 µM)
- Curative activity (PMMoV [3]; [7]): 67.4 ± 2.0%
- pest or weed control at 500 µg/mL (PMMoV [5]; [8]): 72.7 ± 2%
- EC50 (PMMoV [5]; [7]): 53 ± 2.2 µg/mL (≈ 72.1 µM)

Compound: CC(=O)OCC1OC(n2cnc3c(N4CCOCC4)ncnc32)C(NS(=O)(=O)c2cccc(OC(F)(F)F)c2)C(OC(C)=O)C1OC(C)=O (stereo not shown) [C35]
- EC50 (PMMoV [2]; [7]): 33.9 ± 0.5 µg/mL (≈ 47.3 µM)
- Protective activity (PMMoV [2]; [7]): 68.9 ± 2.0%
- EC50 (PMMoV [3]; [7]): 17 ± 1.4 µg/mL (≈ 23.7 µM)
- Curative activity (PMMoV [3]; [7]): 67.9 ± 3.3%
- pest or weed control at 500 µg/mL (PMMoV [5]; [8]): 49.1 ± 1.6%
- EC50 (PMMoV [5]; [7]): 457 ± 10.2 µg/mL (≈ 638 µM)

Compound: Cc1ccc(S(=O)(=O)NC2C(O)C(O)C(CO)OC2n2cnc3c(N4CCOCC4)nc(Cl)nc32)cc1 (stereo not shown) [C36]
- EC50 (PMMoV [2]; [7]): 562 ± 11.1 µg/mL (≈ 1010 µM)
- Protective activity (PMMoV [2]; [7]): 52.2 ± 0.8%
- EC50 (PMMoV [3]; [7]): 283 ± 10.5 µg/mL (≈ 510 µM)
- Curative activity (PMMoV [3]; [7]): 57.3 ± 1.1%
- pest or weed control at 500 µg/mL (PMMoV [5]; [8]): 50.6 ± 3.6%
- EC50 (PMMoV [5]; [7]): 313 ± 7.1 µg/mL (≈ 564 µM)

Compound: O=[N+]([O-])c1ccc(S(=O)(=O)NC2C(O)C(O)C(CO)OC2n2cnc3c(N4CCOCC4)ncnc32)cc1 (stereo not shown) [C37]
- EC50 (PMMoV [2]; [7]): 344 ± 15.8 µg/mL (≈ 623 µM)
- Protective activity (PMMoV [2]; [7]): 50.6 ± 2.1%
- EC50 (PMMoV [3]; [7]): 2000 ± 21.8 µg/mL (≈ 3620 µM)
- Curative activity (PMMoV [3]; [7]): 36.2 ± 4.6%
- pest or weed control at 500 µg/mL (PMMoV [5]; [8]): 57.8 ± 3.4%
- EC50 (PMMoV [5]; [7]): 280 ± 13.9 µg/mL (≈ 507 µM)

Compound: O=S(=O)(NC1C(O)C(O)C(CO)OC1n1cnc2c(N3CCOCC3)nc(F)nc21)c1ccc(OC(F)(F)F)cc1 (stereo not shown) [C38]
- EC50 (PMMoV [2]; [7]): 474 ± 27.7 µg/mL (≈ 779 µM)
- Protective activity (PMMoV [2]; [7]): 46.5 ± 1.0%
- EC50 (PMMoV [3]; [7]): 442 ± 12.6 µg/mL (≈ 726 µM)
- Curative activity (PMMoV [3]; [7]): 51.54 ± 0.3%
- pest or weed control at 500 µg/mL (PMMoV [5]; [8]): 51.6 ± 0.5%
- EC50 (PMMoV [5]; [7]): 421 ± 7.4 µg/mL (≈ 692 µM)

Compound: CNCC(=O)N[C@@H](CO)C(=O)N[C@H]1[C@H](O)[C@@H](O)[C@H](n2ccc(N)nc2=O)O[C@@H]1C(N)=O [Ningnanmycin, reference compound]
- EC50 (PMMoV [2]): 285 ± 5.3 µg/mL (≈ 644 µM)
- Protective activity (PMMoV [2]; [7]): 60.8 ± 3.1%
- EC50 (PMMoV [3]): 258 ± 7.6 µg/mL (≈ 581 µM)
- Curative activity (PMMoV [3]; [7]): 54.5 ± 3.3%
- EC50 (PMMoV [5]): 67.3 ± 3.5 µg/mL (≈ 152 µM)
- pest or weed control at 500 µg/mL (PMMoV [5]): 71.2 ± 6.1%

Compound: I3QHX5 (Octet, in vitro) (from UniProt I3QHX5 1-485) (natural protein)
- Kd [6]: 13 nM
